From patent US10100022B2, “Sphingosine kinase inhibitors” (University of Virginia Patent Foundation, priority 2014, dated 2018)
Where a name gives a salt, the structure may show the parent alone.

Key:
[1] = target: T1, human sphingosine kinase type 2 (hSPHK2) (Homo sapiens, UniProt Q9NRA0); assay: Sphingosine kinase assay, recombinant human SPHK2 ([32P]S1P product, scintillation counting); assay type: biochemical; details: read-out: activity hSPHK2 (range estimate of KI)
T1 construct: purchased; host or cells: Sf9 insect cells (baculovirus)
T1 sequence (Q9NRA0 1-654): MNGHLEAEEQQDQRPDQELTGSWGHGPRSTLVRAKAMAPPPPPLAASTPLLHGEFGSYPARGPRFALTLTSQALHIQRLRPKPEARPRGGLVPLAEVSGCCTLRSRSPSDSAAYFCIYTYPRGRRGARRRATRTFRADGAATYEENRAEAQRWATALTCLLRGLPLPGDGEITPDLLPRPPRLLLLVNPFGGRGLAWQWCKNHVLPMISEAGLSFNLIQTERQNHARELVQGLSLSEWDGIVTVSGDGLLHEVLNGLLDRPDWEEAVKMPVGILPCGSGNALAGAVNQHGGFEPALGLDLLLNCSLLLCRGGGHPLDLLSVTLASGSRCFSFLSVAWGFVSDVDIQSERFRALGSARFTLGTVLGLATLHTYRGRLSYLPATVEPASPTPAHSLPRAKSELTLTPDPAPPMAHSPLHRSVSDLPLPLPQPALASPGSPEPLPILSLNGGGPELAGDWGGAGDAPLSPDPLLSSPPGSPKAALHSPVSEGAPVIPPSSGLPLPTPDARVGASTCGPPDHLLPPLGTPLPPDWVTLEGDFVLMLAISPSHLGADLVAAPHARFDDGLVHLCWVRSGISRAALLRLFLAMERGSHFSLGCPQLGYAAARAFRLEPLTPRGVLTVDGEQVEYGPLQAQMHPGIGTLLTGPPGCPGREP
Experimental: (§1) Recombinant baculovirus encoding human sphingosine kinase type 1 (SPHK1) was used to infect Sf9 insect cells and after 2-5 days, cleared lysates were prepared and used without further purification. Human SPHK2, which was partially purified from baculovirus-infected Sf9 cell lysates, was purchased from a commercial source. Sphingosine kinase assays were performed using standard protocols. Product [^32P]S1P was recovered by binding to cation exchange paper and quantified by scintillation counting.

[2] = target: T2, human sphingosine kinase type 1 (hSPHK1) (Homo sapiens, UniProt Q9NYA1); assay: Sphingosine kinase assay, recombinant human SPHK1 ([32P]S1P product, scintillation counting); assay type: biochemical; details: read-out: activity hSPHK1 (range estimate of KI)
T2 construct: made in house; host or cells: Sf9 insect cells (baculovirus)
T2 sequence (Q9NYA1 whole entry): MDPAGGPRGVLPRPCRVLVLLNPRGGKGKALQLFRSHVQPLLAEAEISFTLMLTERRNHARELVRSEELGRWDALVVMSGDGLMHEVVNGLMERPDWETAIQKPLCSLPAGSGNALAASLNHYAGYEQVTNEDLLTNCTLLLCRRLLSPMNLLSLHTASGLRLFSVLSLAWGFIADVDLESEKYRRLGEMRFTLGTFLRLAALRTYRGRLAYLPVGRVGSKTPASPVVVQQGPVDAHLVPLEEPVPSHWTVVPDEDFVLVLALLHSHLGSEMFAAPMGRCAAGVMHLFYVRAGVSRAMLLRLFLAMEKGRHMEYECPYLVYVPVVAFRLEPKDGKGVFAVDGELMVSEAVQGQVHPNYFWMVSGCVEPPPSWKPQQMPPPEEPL
Experimental: as §1

SMILES | Ki [1] [µM] | Ki [2] [µM]
CCCc1ccc(CCc2ccc(-c3noc([C@@H]4CCCN4C(=N)N)n3)cc2C(F)(F)F)cc1 [Compound 35A, (S)-2-(3-(4-(4-propylphenethyl)-3-(trifluoromethyl)phenyl)-1,2,4-oxadiazol-5-yl)pyrrolidine-1-carboximidamide hydrochloride] | < 1 | > 10
N#Cc1ccc(COc2ccc3cc(-c4noc([C@@H]5CCCN5C(=N)N)n4)ccc3c2)cc1 [Compound 70A, (S)-amino(2-(3-(6-((4-cyanobenzyl)oxy)naphthalen-2-yl)-1,2,4-oxadiazol-5-yl)pyrrolidin-1-yl)methaniminium chloride] | 1 to 10 | > 10
CCCCCCCCOc1ccc(-c2noc([C@@H]3CCN3C(=N)N)n2)cc1C(F)(F)F [Compound 13B] | < 1 | 1 to 10
CC(C)COc1ccc2cc(-c3noc([C@@H]4[C@@H](O)CCN4C(=N)N)n3)ccc2c1 [Compound 15A, Amino((2S,3S)-3-hydroxy-2-(3-(6-isobutoxynaphthalen-2-yl)-1,2,4-oxadiazol-5-yl)pyrrolidin-1-yl)methaniminium chloride] | > 10 | 1 to 10
CCCCCCCCOc1ccc(-c2noc([C@@H]3C=CCN3C(=N)N)n2)cc1C(F)(F)F [Compound 21A, (S)-amino(2-(3-(4-(octyloxy)-3-(trifluoromethyl)phenyl)-1,2,4-oxadiazol-5-yl)-2,5-dihydro-1H-pyrrol-1-yl)methaniminium chloride] | < 1 | > 10
CC1(C)CCC(C)(C)c2cc(COc3ccc4cc(-c5noc([C@@H]6CCCN6C(=N)N)n5)ccc4c3)ccc21 [Compound 71A, (S)-amino(2-(3-(6-((5,5,8,8-tetramethyl-5,6,7,8-tetrahydronaphthalen-2-yl)methoxy)naphthalen-2-yl)-1,2,4-oxadiazol-5-yl)pyrrolidin-1-yl)methaniminium chloride] | > 10 | –
N=C(N)N1CCC[C@H]1c1nc(-c2ccc(OC/C=C/c3ccc(C(F)(F)F)cc3)c(C(F)(F)F)c2)no1 [Compound 88A, (S,E)-amino(2-(3-(3-(trifluoromethyl)-4-((3-(4-(trifluoromethyl)phenyl)allyl)oxy)phenyl)-1,2,4-oxadiazol-5-yl)pyrrolidin-1-yl)methaniminium 2,2,2-trifluoroacetate] | < 1 | > 10
CCCCCCCCOc1c(C)cc(-c2noc([C@@H]3CCCN3C(=N)N)n2)cc1C [Compound 7B] | < 1 | > 10
CCCCCCCCCOc1ccc(-c2noc([C@@H]3CCCN3C(=N)N)n2)cc1C(F)(F)F [Compound 1B] | < 1 | > 10
CCCCCCCCCCn1cc(-c2noc([C@@H]3CCCN3C(=N)N)n2)c2ccccc21 [Compound 7A, (S)-amino(2-(3-(1-decyl-1H-indol-3-yl)-1,2,4-oxadiazol-5-yl)pyrrolidin-1-yl)methaniminium chloride] | < 1 | –
CCCCc1ccc(CCc2ccc(-c3noc([C@@H]4[C@@H](O)CCN4C(=N)N)n3)cc2C(F)(F)F)cc1 [Compound 37A, (2S,3S)-2-(3-(4-(4-butylphenethyl)-3-(trifluoromethyl)phenyl)-1,2,4-oxadiazol-5-yl)-3-hydroxypyrrolidine-1-carboximidamide hydrochloride] | < 1 | 1 to 10
CCCCCCCCOc1ccc(-c2noc([C@@H]3CCCN3C(=N)N)n2)cc1C(F)(F)F [Compound 2B] | – | > 10
COCCCCOc1ccc2cc(-c3noc([C@@H]4CCCN4C(=N)N)n3)ccc2c1 [Compound 65A, (S)-amino(2-(3-(6-(4-methoxybutoxy)naphthalen-2-yl)-1,2,4-oxadiazol-5-yl)pyrrolidin-1-yl)methaniminium chloride] | > 10 | > 10
CCCCCOc1ccc2cc(-c3noc([C@@H]4[C@@H](O)CCN4C(=N)N)n3)ccc2c1 [Compound 14B, Amino((2S,3S)-3-hydroxy-2-(3-(6-(pentyloxy)naphthalen-2-yl)-1,2,4-oxadiazol-5-yl)pyrrolidin-1-yl)methaniminium chloride] | < 1 | < 1
COCCCCOc1ccc(-c2noc([C@@H]3CCCN3C(=N)N)n2)cc1C(F)(F)F [Compound 46A, (S)-2-(3-(4-(4-methoxybutoxy)-3-(trifluoromethyl)phenyl)-1,2,4-oxadiazol-5-yl)pyrrolidine-1-carboximidamide 2,2,2-trifluoroacetate] | > 10 | > 10
CCCC/C=C/COc1ccc(-c2noc([C@@H]3CCCN3C(=N)N)n2)cc1C(F)(F)F [Compound 78A, (S,E)-amino(2-(3-(4-(hept-2-en-1-yloxy)-3-(trifluoromethyl)phenyl)-1,2,4-oxadiazol-5-yl)pyrrolidin-1-yl)methaniminium 2,2,2-trifluoroacetate] | < 1 | > 10
N=C(N)N1CCC[C@H]1c1nc(-c2ccc(OC/C=C\c3ccc(C(F)(F)F)cc3)c(C(F)(F)F)c2)no1 [Compound 92A, (S,Z)-amino(2-(3-(3-(trifluoromethyl)-4-((3-(4-(trifluoromethyl)phenyl)allyl)oxy)phenyl)-1,2,4-oxadiazol-5-yl)pyrrolidin-1-yl)methaniminium 2,2,2-trifluoroacetate] | < 1 | > 10
N=C(N)N1CCC[C@H]1c1nc(-c2ccc(OCCCCO)c(C(F)(F)F)c2)no1 [Compound 45A, (S)-2-(3-(4-(4-hydroxybutoxy)-3-(trifluoromethyl)phenyl)-1,2,4-oxadiazol-5-yl)pyrrolidine-1-carboximidamide hydrochloride] | 1 to 10 | > 10
CCCC/C=C\CCOc1ccc(-c2noc([C@@H]3CCCN3C(=N)N)n2)cc1C(F)(F)F [Compound 85A, (S,Z)-amino(2-(3-(4-(oct-3-en-1-yloxy)-3-(trifluoromethyl)phenyl)-1,2,4-oxadiazol-5-yl)pyrrolidin-1-yl)methaniminium 2,2,2-trifluoroacetate] | < 1 | > 10
N=C(N)N1CCC[C@H]1c1nc(-c2ccc3cc(OCCc4ccc(C(F)(F)F)cc4)ccc3c2)no1 [Compound 54A, (S)-amino(2-(3-(6-(4-(trifluoromethyl)phenethoxy)naphthalen-2-yl)-1,2,4-oxadiazol-5-yl)pyrrolidin-1-yl)methaniminium chloride] | > 10 | > 10
CCCCCCCn1cc(-c2noc([C@@H]3CCCN3C(=N)N)n2)c2ccccc21 [Compound 1A, (S)-amino(2-(3-(1-heptyl-1H-indol-3-yl)-1,2,4-oxadiazol-5-yl)pyrrolidin-1-yl)methaniminium chloride] | > 10 | > 10
CCCCCCCCCn1cc(-c2noc([C@@H]3CCCN3C(=N)N)n2)c2ccccc21 [Compound 2A, (S)-amino(2-(3-(1-nonyl-1H-indol-3-yl)-1,2,4-oxadiazol-5-yl)pyrrolidin-1-yl)methaniminium chloride] | > 10 | > 10
CCCCCCCCOc1ccc(-c2nnc([C@@H]3CCCN3C(=N)N)s2)cc1C(F)(F)F [Compound 5B] | < 1 | > 10
N=C(N)N1CCC[C@H]1c1nc(-c2ccc(OCCCc3ccc4c(c3)OCCO4)c(C(F)(F)F)c2)no1 [Compound 29A, (S)-amino(2-(3-(4-(3-(2,3-dihydrobenzo[b][1,4]dioxin-6-yl)propoxy)-3-(trifluoromethyl)phenyl)-1,2,4-oxadiazol-5-yl)pyrrolidin-1-yl)methaniminium chloride] | > 10 | > 10
N=C(N)N1CCC[C@H]1c1nc(-c2ccc(OCCCc3ccc(C(F)(F)F)cc3)c(C(F)(F)F)c2)no1 [Compound 32A, (S)-amino(2-(3-(3-(trifluoromethyl)-4-(3-(4-(trifluoromethyl)phenyl)propoxy)phenyl)-1,2,4-oxadiazol-5-yl)pyrrolidin-1-yl)methaniminium chloride] | < 1 | > 10
N=C(N)N1CCC[C@H]1c1nc(-c2ccc3cc(OCc4ccc(C(F)(F)F)cc4)ccc3c2)no1 [Compound 52A, (S)-amino(2-(3-(6-((4-(trifluoromethyl)benzyl)oxy)naphthalen-2-yl)-1,2,4-oxadiazol-5-yl)pyrrolidin-1-yl)methaniminium chloride] | 1 to 10 | –
CCCCCCCCCCCCn1cc(-c2noc([C@@H]3CCCN3C(=N)N)n2)c2ccccc21 [Compound 3A, (S)-amino(2-(3-(1-dodecyl-1H-indol-3-yl)-1,2,4-oxadiazol-5-yl)pyrrolidin-1-yl)methaniminium chloride] | < 1 | –
CCCCOc1ccc2cc(-c3noc([C@@H]4CCCN4C(=N)N)n3)ccc2c1 [Compound 56A, (S)-amino(2-(3-(6-(butyloxy)naphthalen-2-yl)-1,2,4-oxadiazol-5-yl)pyrrolidin-1-yl)methaniminium chloride] | 1 to 10 | –
